Where “and” joins values, the source holds several entries; their conditions need not be identical. Equal entries are not always repeated.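 Dose response: 5 concentrations. Exposure: 48 h. Format: 96-well plates. Endpoint: linear interpolation; highest concentration if not reached. GI50: concentration for 50% inhibition of growth. TGI: concentration producing complete growth inhibition.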
How the values were obtained:
Test in all cases: NCI-60 cell line screen, 48 h
MALME-3M melanoma = system: MALME-3M melanoma
SW-620 colon = system: SW-620 colon
SF-539 CNS = system: SF-539 CNS
OVCAR-5 ovarian = system: OVCAR-5 ovarian
SK-OV-3 ovarian = system: SK-OV-3 ovarian
SK-MEL-28 melanoma = system: SK-MEL-28 melanoma
UACC-62 melanoma = system: UACC-62 melanoma
UACC-257 melanoma = system: UACC-257 melanoma
SR leukemia = system: SR leukemia
ACHN renal = system: ACHN renal

Structure (SMILES)	TGI (MALME-3M melanoma) [µM]	TGI (SW-620 colon) [µM]	TGI (SF-539 CNS)	TGI (OVCAR-5 ovarian) [µM]	TGI (SK-OV-3 ovarian)	TGI (SK-MEL-28 melanoma) [µM]	TGI (UACC-62 melanoma)	TGI (UACC-257 melanoma)	TGI (SR leukemia)	TGI (ACHN renal)	GI50 (SR leukemia)	GI50 (ACHN renal)	GI50 (MALME-3M melanoma)	GI50 (SW-620 colon)	GI50 (SF-539 CNS)	GI50 (SK-OV-3 ovarian)	GI50 (SK-MEL-28 melanoma)	GI50 (UACC-62 melanoma)	GI50 (UACC-257 melanoma)	GI50 (OVCAR-5 ovarian)
CC[C@@]1(OC(=O)CCC(=O)O)C(=O)OCc2c1cc1n(c2=O)Cc2cc3ccccc3nc2-1	6.78	16.8	0.238 µM	11.9	14.2 µM	> 46.1	0.255 µM	2.09 µM	0.03 µM	0.424 µM										
CCCN(CCC)c1c([N+](=O)[O-])cc(S(N)(=O)=O)cc1[N+](=O)[O-]	33	36	35.9 µM	37.9	31.8 µM	36.3	32.8 µM	37.2 µM	57.4 µM	31.8 µM										
COc1ccc([N+](=O)[O-])c2c(NCC(O)CO)ccnc12 (configuration not stated)	44.7	> 100	90.1 µM	> 100	> 100 µM	> 100	58.9 µM	95.9 µM	> 100 µM	> 100 µM										
CC(O)C(NC(=O)C(CS)NC(=O)C(CO)NC(=O)C(CCCCN)NC(=O)C(Cc1c[nH]c2ccccc12)NC(=O)C(Cc1ccc(O)cc1)NC(=O)C(CS)NC(=O)C(N)Cc1ccccc1)C(N)=O (configuration not stated)	> 25	> 25	> 25 µM and 68.9 µM	> 25	> 25 µM	76.9	> 25 µM and 57.8 µM	> 25 µM and 65.9 µM	> 25 µM and 86.5 µM	> 25 µM and 44.5 µM	29.7 µM	20.5 µM								
Cc1ccc2c(c1)sc(-c1ccc(N(C)C)cc1)[n+]2C	15.4	> 66	14.1 µM	> 100	7.91 µM	20.9	15.5 µM	19.9 µM	19.4 µM	> 100 µM	0.125 µM	5.89 µM	1.38 µM	2.28 µM	2.56 µM	2.04 µM	3.3 µM	2.07 µM	0.657 µM	
O=[N+]([O-])/C=C\c1ccc2c(c1)OCO2	32.9	4.91	9.35 µM	26.4	24.4 µM	16.4	31.8 µM	3.77 µM	8.06 µM	16.2 µM	2.73 µM	4.21 µM	14.6 µM	2.07 µM	3.08 µM	12.1 µM	4.7 µM	15.3 µM	1.64 µM	11.5 µM
CN(C)CCNC(=O)c1cccc(CO)c1[N+](=O)[O-]	> 100	> 100	> 100 µM	> 100	> 100 µM	> 100	> 100 µM	> 100 µM	> 100 µM	> 100 µM										
Cn1cnc([N+](=O)[O-])c1Sc1ncnc2nc[nH]c12	> 100	> 100	> 100 µM	> 100	39.6 µM and > 100 µM	> 100	> 100 µM	> 100 µM	> 100 µM	> 100 µM	37.9 µM and 4.04 µM	38.1 µM and 41.7 µM	4.22 µM and 34.9 µM	18.8 µM and 32.1 µM	4.81 µM and 3.26 µM	0.471 µM and 0.867 µM	37.8 µM and 40.2 µM	2.54 µM and 3.4 µM	7.86 µM and 8.71 µM	8.42 µM and 53.2 µM
O=Nc1c2cccnc2n2nnc3ccc(Cl)cc3c12	4.95	1.33	10.5 µM	14.5	20.4 µM	5.36	11.2 µM	23.3 µM	2.99 µM	2.02 µM	0.0458 µM	0.371 µM	1.57 µM	0.331 µM	3.68 µM	5.37 µM	2.39 µM	3.99 µM	5.87 µM	3.6 µM
CCOC(=O)/C(C1=CC(=O)C(=O)c2ccccc21)=C(/C)NCc1ccccc1	3.57	3.3	2.65 µM	6.69	4.88 µM	7.32	3.91 µM	10.9 µM	0.274 µM	4.75 µM	0.127 µM	2.28 µM	1.66 µM	1.64 µM	1.06 µM	2.17 µM	3.02 µM	2.02 µM	2.56 µM	2.43 µM
O=C1NC(=O)C(c2ccccc2Cl)=C1Nc1cccc(O)c1	> 25	> 25	> 25 µM	> 25	> 25 µM	> 25	> 25 µM	> 25 µM	> 25 µM	> 25 µM	1.97 µM	> 25 µM	> 25 µM	1.47 µM	8.93 µM	4.99 µM	> 25 µM	2.25 µM	> 25 µM	> 20.5 µM
OCCCNCc1ccccn1	> 100	> 100	> 100 µM	> 100	> 100 µM	> 100	> 100 µM	> 100 µM	> 100 µM	> 100 µM										
CC(=O)O/C(C)=C\C(=O)O/N=C(\N)c1ccc(C)cc1	71.5	> 100	57.4 µM	> 100	> 100 µM	42.7	56.7 µM	> 100 µM	> 100 µM	> 100 µM										
CC1=C(N2CC2)C(=O)c2nc3n(c2C1=O)CCC3O (configuration not stated)	0.33	0.726	0.669 µM	3.84	0.859 µM	0.872	0.482 µM	0.513 µM	35.6 µM	1.61 µM										
COC(=O)/C(=N/NC(C)(C)C)C(C(=O)C=C(C)C)C(=O)C(=O)Nc1ccc(Cl)cc1C (configuration not stated)	> 100	> 100	> 100 µM	> 100	> 100 µM	> 100	> 100 µM	> 100 µM	> 100 µM	> 100 µM										
CC1=CC[C@@H]2C(C)(C)[C@@H](O)CC[C@@]2(C)[C@@H]1COc1ccc2ccc(=O)oc2c1	22.4	27.2	28.5 µM	42.3	32.3 µM	26.7	14.5 µM	26.2 µM	42 µM	19.6 µM	7.92 µM	5.11 µM	8.04 µM	9.94 µM	12.3 µM	15.5 µM	11.8 µM	3.52 µM	12.4 µM	16.6 µM
CN(C)CCNc1cccc2sc3ccc(O)cc3c(=O)c12	3.13	3.44	4.01 µM	22.8	14.4 µM	3.88	2.87 µM	3.21 µM	4.37 µM	3.78 µM	1.08 µM	1.43 µM	1.59 µM	1.16 µM	1.77 µM	3.36 µM	1.74 µM	1.43 µM	1.7 µM	7.32 µM

Structure (SMILES)	TGI (MALME-3M melanoma) [µM]	TGI (SW-620 colon) [µM]	TGI (SF-539 CNS)	TGI (OVCAR-5 ovarian) [µM]	TGI (SK-OV-3 ovarian)	TGI (SK-MEL-28 melanoma) [µM]	TGI (UACC-62 melanoma)	TGI (UACC-257 melanoma)	TGI (SR leukemia)	TGI (ACHN renal)	GI50 (SR leukemia)	GI50 (ACHN renal)	GI50 (MALME-3M melanoma)	GI50 (SW-620 colon)	GI50 (SF-539 CNS)	GI50 (SK-OV-3 ovarian)	GI50 (SK-MEL-28 melanoma)	GI50 (UACC-62 melanoma)	GI50 (UACC-257 melanoma)	GI50 (OVCAR-5 ovarian)
Cn1c(=O)c2c(nc3n2CCC(=O)N3)n(C)c1=O	> 100	> 100	> 100 µM	> 100	> 100 µM	> 100	> 100 µM	> 100 µM	> 100 µM	> 100 µM										
NC(N)=NNC(=O)C(=O)O	> 100	> 100	> 100 µM	> 100	> 100 µM	> 100	> 100 µM	> 100 µM	> 100 µM	> 100 µM										
CCCCS(=N)(=O)CC[C@H](N)C(=O)O (some centres not stated)	> 10000	> 10000	5000 µM and > 10000 µM	> 10000	> 10000 µM	> 10000	> 10000 µM	> 10000 µM	5000 µM and > 10000 µM	> 10000 µM	3980 µM	> 10000 µM	> 8490 µM	3710 µM	> 10000 µM	> 10000 µM	> 10000 µM	> 8090 µM	> 10000 µM	> 10000 µM
Cc1ccc(C)c(NC(=O)/C(=N\NC(N)=S)C(C#N)c2ccccc2)c1 (configuration not stated)	> 100	> 100	> 100 µM	> 100	> 100 µM	> 100	> 100 µM	> 100 µM	> 100 µM	> 100 µM										
O=C1Cc2c(-c3ccccc3)cc(-c3cccc(Cl)c3)nc2-c2ccccc2N1	13.3	> 100	> 29.9 µM	30.3	9.49 µM	25.8	12.2 µM	24.1 µM	> 100 µM	5.63 µM		1.15 µM								
CC(SC1=CC(=O)c2c(O)ccc(O)c2C1=O)C(=O)O (configuration not stated)	> 64.6	> 55.6	> 100 µM	> 100	> 100 µM	> 80.1	36.6 µM	> 66 µM	> 100 µM	> 64.1 µM										
CCN(CC)C(=S)SSC1CCCCC1	46.3	26.2	31.7 µM	32.7	75 µM	42.2	42.8 µM	65 µM	4.36 µM	32 µM	0.0656 µM	16.6 µM	20.8 µM	11.7 µM	15.3 µM	31.2 µM	19.9 µM	18 µM	22.5 µM	18.7 µM
Cc1cc2occ(C)c(=O)c2c2c1OC(C)(C)S2	> 100	> 100	> 100 µM	> 100	> 100 µM	> 100	> 100 µM	> 100 µM	> 100 µM	> 100 µM										
Cc1ccc(S(=O)(=O)NCCN2c3nc4ccccc4cc3Sc3cc4ccccc4nc32)cc1	> 100	> 100	20.5 µM	> 100	54.2 µM	> 100	51.4 µM	> 100 µM	> 100 µM	> 100 µM	> 100 µM	8.42 µM	23.2 µM	> 100 µM	4.79 µM	7.82 µM	> 100 µM	11.4 µM	> 100 µM	> 100 µM
C=C1C(O)C2C(=C(CC(C)C)C13CC3)C(=O)C(C)(C)C2OC (configuration not stated)	> 100	> 100	> 100 µM	> 100	> 100 µM	> 100	> 100 µM	> 100 µM	> 100 µM	> 100 µM	82.9 µM	> 100 µM	> 100 µM	> 100 µM	> 100 µM	> 100 µM	> 100 µM	> 100 µM	> 100 µM	> 100 µM
N#C/C(=C(\O)C(=O)O)c1ccc(-c2cccc3ccccc23)cc1	> 100	> 100	> 100 µM	> 100	> 100 µM	> 100	> 100 µM	> 100 µM	> 100 µM	> 100 µM										
c1ccc(COc2ccc3[nH]c4c(ncc5[nH]c6ccccc6c54)c3c2)cc1	18.2	32.3	29.4 µM	33.6	32.9 µM	31.6	35.3 µM	32.8 µM	30.3 µM	31.6 µM										
c1cc(-c2sc(-c3ccncc3)c(-c3ccncc3)c2-c2ccncc2)ccn1	32.5	59.5	35 µM	47.2	54 µM	46.1	27.8 µM	31.8 µM	> 100 µM	42.9 µM										
O=S(=O)(O)c1ccc2cc(N=Nc3cc(S(=O)(=O)O)c4cccnc4c3O)ccc2c1	> 100	> 100	> 100 µM	> 100	> 100 µM	> 100	> 100 µM	> 100 µM	> 100 µM	> 100 µM										
Nc1ncnc2c1ncn2C1OC(C(=O)O)C(O)C1O (configuration not stated)	> 100	> 100	> 100 µM	> 100	> 100 µM	> 100	> 100 µM	> 100 µM	> 100 µM	> 100 µM										
[Cl][Sn]([c]1ccccc1)[c]1ccccc1	4.66	4.49	22.6 µM	27.3	32.7 µM	3.62	9.57 µM	23.1 µM	17.5 µM	24.2 µM	3.39 µM	11.9 µM	2.19 µM	1.95 µM	9.43 µM	18.4 µM	1.58 µM	3.22 µM	8.25 µM	13.6 µM

Reference: PubChem BioAssay (NCI)
